Laboratory results published in US20150335637A1, “COMPOSITIONS AND METHODS FOR TREATING CUTANEOUS T CELL LYMPHOMA” (THE TRUSTEES OF THE UNIVERSITY OF PENNSYLVANIA, priority 2013, published 2015).

System: cutaneous T-cell lymphoma (CTCL) lesions
Assay: Phase I open label trial of resiquimod gel, clinical response of skin lesions
Format: in vivo, human
Procedure: The final trial design calls for a total of 16-20 patients, with the first half cohort treated topically with 0.06% gel and the second half cohort treated topically with 0.03% gel.
According to the study design, treatment of only four to five target lesions is permitted for eight weeks; followed by four weeks of rest and another eight weeks of therapy. Final evaluation is conducted after four weeks off of therapy.

## CCOCc1nc2c(N)nc3ccccc3c2n1CC(C)(C)O [resiquimod, 4-amino-α,α-dimethyl-2-ethoxymethyl-1H-imidazo[4,5-c]quinolin-1-ethanol]
Patient refractory to previous treatments, before application vs end of week 8
  skin lesions of one patient (FIG. 1): clears the treated lesions and induces resolution of distant lesions
Refractory early stage CTCL patients
  clinical response rates for treated and untreated lesions: high clinical response rates of both treated as well as distant, non-treated lesions
